Assays:
Assay type in all cases: cell-based
Settings in all cases: at 31 ppm; absorption at 405 nm 7 days after inoculation; relative to active compound-free control (100%)
Septoria tritici = assay: Activity against leaf blotch on wheat caused by Septoria tritici (Septtr), microtiterplate test
Pyricularia oryzae = test system: Pyricularia oryzae
Botrytis cinerea = assay: Activity against the grey mold Botrytis cinerea in the microtiterplate test (Botrci)

Measured: growth (relative growth in % of the pathogen)

OC(Cn1cncn1)(c1ccc(C#CC2CC2)cc1Cl)C1CC1 (stereo not drawn) [Compound I-1, 1-[2-chloro-4-(2-cyclopropylethynyl)phenyl]-1-cyclopropyl-2-(1,2,4-triazol-1-yl)ethanol]
0%: all assays above
